From ChEMBL document CHEMBL1130756, “Synthesis and cytotoxic activity of novel 10-alkylated docetaxel analogs” (1998)
≈ marks a conversion by molar mass, not a printed value.

What was measured:
PC-6 = test: Concentration required to inhibit the growth of human lung cancer (PC-6)cell lines by 50% on 72 hr continuous exposure; assay type: functional; details: PC-6, 72 h
P388 = test: Concentration required to inhibit the growth of mouse leukemia (P388) cell lines by 50% on 72 h continuous exposure; assay type: functional; details: P388, 72 h

Row | SMILES | GI50 (P388) | GI50 (PC-6)
1 | CC(=O)O[C@@]12COC1C[C@H](O)[C@@]1(C)C(=O)[C@H](CCCO)C3=C(C)[C@@H](OC(=O)[C@H](O)[C@@H](NC(=O)OC(C)(C)C)c4ccccc4)C[C@@](O)([C@@H](OC(=O)c4ccccc4)[C@@H]12)C3(C)C (stereo partly drawn) | 0.0155 µg/mL (≈ 0.0182 µM) | 0.777 ng/mL (≈ 0.000914 µM)
2 | CC(=O)O[C@@]12COC1C[C@H](O)[C@@]1(C)C(=O)[C@H](CCCN)C3=C(C)[C@@H](OC(=O)[C@H](O)[C@@H](NC(=O)OC(C)(C)C)c4ccccc4)C[C@@](O)([C@@H](OC(=O)c4ccccc4)[C@@H]12)C3(C)C (stereo partly drawn) | 1.52 µg/mL (≈ 1.79 µM) | 236 ng/mL (≈ 0.278 µM)
3 | CC(=O)O[C@@]12CO[C@@H]1C[C@H](O)[C@@]1(C)C(=O)[C@H](O)C3=C(C)[C@@H](OC(=O)[C@H](O)[C@@H](NC(=O)OC(C)(C)C)c4ccccc4)C[C@@](O)([C@@H](OC(=O)c4ccccc4)[C@H]21)C3(C)C.O.O.O [DOCETAXEL] | 0.00674 µg/mL | 1.13 ng/mL
4 | COC(=O)CC[C@H]1C(=O)[C@]2(C)[C@@H](O)CC3OC[C@@]3(OC(C)=O)[C@H]2[C@H](OC(=O)c2ccccc2)[C@]2(O)C[C@H](OC(=O)[C@H](O)[C@@H](NC(=O)OC(C)(C)C)c3ccccc3)C(C)=C1C2(C)C (stereo partly drawn) | 0.0033 µg/mL (≈ 0.00376 µM) | 0.771 ng/mL (≈ 0.000878 µM)

More lines, main results first:

Row | GI50 (P388) | SMILES | GI50 (PC-6)
5 | 1.87 µg/mL (≈ 2.16 µM) | CC(=O)O[C@@]12COC1C[C@H](O)[C@@]1(C)C(=O)[C@H](CCC(=O)O)C3=C(C)[C@@H](OC(=O)[C@H](O)[C@@H](NC(=O)OC(C)(C)C)c4ccccc4)C[C@@](O)([C@@H](OC(=O)c4ccccc4)[C@@H]12)C3(C)C (stereo partly drawn) | 934 ng/mL (≈ 1.08 µM)
6 | 0.00431 µg/mL (≈ 0.00483 µM) | CCOC(=O)CC[C@H]1C(=O)[C@]2(C)[C@@H](O)CC3OC[C@@]3(OC(C)=O)[C@H]2[C@H](OC(=O)c2ccccc2)[C@]2(O)C[C@H](OC(=O)[C@H](O)[C@@H](NC(=O)OC(C)(C)C)c3ccccc3)C(C)=C1C2(C)C (stereo partly drawn) | 1.35 ng/mL (≈ 0.00151 µM)
7 | 0.0184 µg/mL (≈ 0.0218 µM) | CC(=O)O[C@@]12COC1C[C@H](O)[C@@]1(C)C(=O)[C@H](CCC#N)C3=C(C)[C@@H](OC(=O)[C@H](O)[C@@H](NC(=O)OC(C)(C)C)c4ccccc4)C[C@@](O)([C@@H](OC(=O)c4ccccc4)[C@@H]12)C3(C)C (stereo partly drawn) | 0.681 ng/mL (≈ 0.000806 µM)
8 | 0.0718 µg/mL (≈ 0.0806 µM) | CC(=O)NCCC[C@H]1C(=O)[C@]2(C)[C@@H](O)CC3OC[C@@]3(OC(C)=O)[C@H]2[C@H](OC(=O)c2ccccc2)[C@]2(O)C[C@H](OC(=O)[C@H](O)[C@@H](NC(=O)OC(C)(C)C)c3ccccc3)C(C)=C1C2(C)C (stereo partly drawn) | 10.5 ng/mL (≈ 0.0118 µM)
9 | 0.00712 µg/mL (≈ 0.00826 µM) | CC(=O)CC[C@H]1C(=O)[C@]2(C)[C@@H](O)CC3OC[C@@]3(OC(C)=O)[C@H]2[C@H](OC(=O)c2ccccc2)[C@]2(O)C[C@H](OC(=O)[C@H](O)[C@@H](NC(=O)OC(C)(C)C)c3ccccc3)C(C)=C1C2(C)C (stereo partly drawn) | 0.266 ng/mL (≈ 0.000309 µM)
